How the values were obtained:
[1] = system: Table apple, type Boiken apple (C1); test: Greenhouse test, cut apple branches C1 dipped in test solution, bud development stage; type: in vivo, Malus domestica; set-up: key to Bud development stage, apple branches C1: Stage 0: Buds unchanged; Stage 1: Buds slightly swollen, first green tips visible; Stage 2: strongly swollen, green buds; Stage 3: Buds before breaking open, leaf or flower root already visible; Stage 4: Flower buds fully developed, but still closed, white petals already visible. In the case of the grapevine, stage 4 was the unfolding of the first leaves; Stage 5: Flowers fully open or, in the case of grapevine, unfolding of the flower roots (“Gescheine”) on the fully leafed sprouts; conditions: for Dormancy-breaking effect according to the definition, apple C1: stage 4 reached or exceeded after 36 days vs negative control
Protocol: Greenhouse tests were conducted using cut fruit tree branches placed in water jars and maintained under controlled conditions with temperature regulation at approximately 22° C. and natural lighting. C1: Table Apple, Type Boiken Apple Table apple: Malus domestica type Boiken first described in 1828 in Bremen after Deichvogt Boiken. Apple type for rough locations and for almost every soil suitable scattered fruit type, whereby heavy soils and not too warm locations are required. Tree growth initially strong, later medium. Older crowns become broadly spherical and are loosely branched. Flowering starting medium-late and long lasting, petals large with little pink. Yield starting late (October) and irregular; with long shelf life and pressure resistance. […] The test solutions were prepared directly, i.e. without intermediate preparation of a concentrate. For each of the test substances A-1 to A-13, an aqueous solution of 0.15 mol of the test substance and 0.15 g BreakThru® OE-446 was prepared and filled up to a total of 500 g with water. Of bis-cyanamides A-14 and A-15, 0.075 mol each was filled up to 500 g in an analogous manner. These test solutions (in combination with the above 4 species/types Cx) were given the test numbers Cx-A1 to Cx-A15. […] This was done with the following evaluation scale: • Stage 0: […] Flower buds fully developed, but still closed, white petals already visible. […] Flowers fully open or, in the case of grapevine, unfolding of the flower roots (“[…]”) on the fully leafed sprouts.

[2] = system: Table apple, type Zabergäu-Renette (C2); test: Greenhouse test, cut apple branches C2 dipped in test solution, bud development stage; type: in vivo, Malus domestica; set-up: key to Bud development stage, apple branches C2: Stage 0: Buds unchanged; Stage 1: Buds slightly swollen, first green tips visible; Stage 2: strongly swollen, green buds; Stage 3: Buds before breaking open, leaf or flower root already visible; Stage 4: Flower buds fully developed, but still closed, white petals already visible. In the case of the grapevine, stage 4 was the unfolding of the first leaves; Stage 5: Flowers fully open or, in the case of grapevine, unfolding of the flower roots (“Gescheine”) on the fully leafed sprouts; conditions: for Dormancy-breaking effect according to the definition, apple C2: stage 4 reached or exceeded after 36 days vs negative control
Protocol: Greenhouse tests were conducted using cut fruit tree branches placed in water jars and maintained under controlled conditions with temperature regulation at approximately 22° C. and natural lighting. C2: Table Apple, Type […] Table apple: Malus domestica type […] first developed in 1885 as a chance seedling in Hausen a.d. Zaber/Baden-Württemberg and initially grown as 'Hausener Graue […]'. No defined storage type; requires heavy soils (loam). Tree growth initially strong with oblique upright leading branches, later medium with flat branches. Crown broad and flat-spherical with flat fruiting wood. Leaves large, broad oval and with clearly separated tip. Triploid type with late and long-lasting flowering. Yield starting early, medium high and somewhat alternate. […] The test solutions were prepared directly, i.e. without intermediate preparation of a concentrate. For each of the test substances A-1 to A-13, an aqueous solution of 0.15 mol of the test substance and 0.15 g BreakThru® OE-446 was prepared and filled up to a total of 500 g with water. Of bis-cyanamides A-14 and A-15, 0.075 mol each was filled up to 500 g in an analogous manner. These test solutions (in combination with the above 4 species/types Cx) were given the test numbers Cx-A1 to Cx-A15. […] This was done with the following evaluation scale: • Stage 0: […] Flower buds fully developed, but still closed, white petals already visible. […] Flowers fully open or, in the case of grapevine, unfolding of the flower roots (“[…]”) on the fully leafed sprouts.

[3] = system: Table cherry, type Burlat (C3); test: Greenhouse test, cut cherry branches C3 dipped in test solution, bud development stage; type: in vivo, Prunus avium; set-up: key to Bud development stage, cherry branches C3: Stage 0: Buds unchanged; Stage 1: Buds slightly swollen, first green tips visible; Stage 2: strongly swollen, green buds; Stage 3: Buds before breaking open, leaf or flower root already visible; Stage 4: Flower buds fully developed, but still closed, white petals already visible. In the case of the grapevine, stage 4 was the unfolding of the first leaves; Stage 5: Flowers fully open or, in the case of grapevine, unfolding of the flower roots (“Gescheine”) on the fully leafed sprouts; conditions: for Good to very good dormancy-breaking effect, cherry C3: stage 4 reached or exceeded after 21 days vs negative control; for Dormancy-breaking effect according to the definition, cherry C3: stage 4 reached or exceeded after 27 days vs negative control
Protocol: Greenhouse tests were conducted using cut fruit tree branches placed in water jars and maintained under controlled conditions with temperature regulation at approximately 22° C. and natural lighting. C3: Table Cherry, Type Burlat Table cherry: Prunus avium type Bigarreau Burlat or […] is a strong-growing somewhat sparse growing sweet cherry tree with horizontal side sprouts. The type has been known since 1930 and is one of the most important types in commercial cultivation. […] Medium but regular yields identify the type as a secondary type for early and dry areas. […] The test solutions were prepared directly, i.e. without intermediate preparation of a concentrate. For each of the test substances A-1 to A-13, an aqueous solution of 0.15 mol of the test substance and 0.15 g BreakThru® OE-446 was prepared and filled up to a total of 500 g with water. Of bis-cyanamides A-14 and A-15, 0.075 mol each was filled up to 500 g in an analogous manner. These test solutions (in combination with the above 4 species/types Cx) were given the test numbers Cx-A1 to Cx-A15. […] This was done with the following evaluation scale: • Stage 0: […] Flower buds fully developed, but still closed, white petals already visible. […] Flowers fully open or, in the case of grapevine, unfolding of the flower roots (“[…]”) on the fully leafed sprouts.

[4] = system: Grape, type Pinot Noir (C4); test: Greenhouse test, cut wine sprouts C4 dipped in test solution, bud development stage; type: in vivo, Vitis vinifera subsp. vinifera; set-up: key to Bud development stage, wine sprouts C4: Stage 0: Buds unchanged; Stage 1: Buds slightly swollen, first green tips visible; Stage 2: strongly swollen, green buds; Stage 3: Buds before breaking open, leaf or flower root already visible; Stage 4: Flower buds fully developed, but still closed, white petals already visible. In the case of the grapevine, stage 4 was the unfolding of the first leaves; Stage 5: Flowers fully open or, in the case of grapevine, unfolding of the flower roots (“Gescheine”) on the fully leafed sprouts; conditions: for Dormancy-breaking effect according to the definition, wine C4: stage 4 reached or exceeded after 36 days vs negative control
Protocol: Greenhouse tests were conducted using cut fruit tree branches placed in water jars and maintained under controlled conditions with temperature regulation at approximately 22° C. and natural lighting. C4: Grape, Type Pinot Noir Grape: Vitis vinifera subsp. vinifera type Pinot Noir is an important and high quality red wine type that has existed for possibly 2000 years. It is cultivated all over the world because the type produces high quality red wines and has sufficient winter frost resistance. The type requires early and good areas with deep, warm, medium-heavy and fertile soils with good water supply. Pinot Noir produces regular, medium-high to high yields. However, there are a large number of clones that differ in yield, berry size and looseness. […] The test solutions were prepared directly, i.e. without intermediate preparation of a concentrate. For each of the test substances A-1 to A-13, an aqueous solution of 0.15 mol of the test substance and 0.15 g BreakThru® OE-446 was prepared and filled up to a total of 500 g with water. Of bis-cyanamides A-14 and A-15, 0.075 mol each was filled up to 500 g in an analogous manner. These test solutions (in combination with the above 4 species/types Cx) were given the test numbers Cx-A1 to Cx-A15. […] This was done with the following evaluation scale: • Stage 0: […] Flower buds fully developed, but still closed, white petals already visible. […] Flowers fully open or, in the case of grapevine, unfolding of the flower roots (“[…]”) on the fully leafed sprouts.

[5] = T1 (14 d), 0.15 mol (A-14, A-15: 0.075 mol) per 500 g solution
[6] = stage 4 reached or exceeded after 27 days vs negative control

SMILES | Bud development stage, apple branches C1 [1, 5] | Bud development stage, apple branches C1 ([1]; T2 (16 d)) | Bud development stage, apple branches C1 ([1]; T3 (21 d)) | Bud development stage, apple branches C1 ([1]; T4 (27 d)) | Bud development stage, apple branches C1 ([1]; T5 (36 d)) | Bud development stage, apple branches C1 ([1]; T6 (56 d)) | Bud development stage, apple branches C2 [2, 5] | Bud development stage, apple branches C2 ([2]; T2 (16 d)) | Bud development stage, apple branches C2 ([2]; T3 (21 d)) | Bud development stage, apple branches C2 ([2]; T4 (27 d)) | Bud development stage, apple branches C2 ([2]; T5 (36 d)) | Bud development stage, apple branches C2 ([2]; T6 (56 d)) | Bud development stage, cherry branches C3 [3, 5] | Bud development stage, cherry branches C3 ([3]; T2 (16 d)) | Bud development stage, cherry branches C3 ([3]; T3 (21 d)) | Bud development stage, cherry branches C3 ([3]; T4 (27 d)) | Bud development stage, cherry branches C3 ([3]; T5 (36 d)) | Bud development stage, cherry branches C3 ([3]; T6 (56 d)) | Bud development stage, wine sprouts C4 [4, 5] | Bud development stage, wine sprouts C4 ([4]; T2 (16 d)) | other results
N#CNC(=O)c1ccccc1.[Na] [Example A-4, Sodium benzoyl cyanamide] | 1 | 1 | 1 | 2 | 3 | 4 | 0 | 0 | 0 | 1 | 2 | 2 | 1 | 2 | 4 | 4 | 5 | 5 | 0 | 0 | Good to very good dormancy-breaking effect, cherry C3 [3]: good to very good dormancy-breaking effect; Dormancy-breaking effect according to the definition, cherry C3 [3]: dormancy-breaking effect; Bud development stage, wine sprouts C4 ([4]; T3 (21 d)): 0; Bud development stage, wine sprouts C4 ([4]; T4 (27 d)): 3; Bud development stage, wine sprouts C4 ([4]; T5 (36 d)): 5; Bud development stage, wine sprouts C4 ([4]; T6 (56 d)): 5; Dormancy-breaking effect according to the definition, wine C4 [4]: dormancy-breaking effect
N#CNC=O.[Na] [Example A-2, Sodium Formylcyanamide] | 0 | 0 | 4 | 5 | 5 | 5 | 0 | 0 | 1 | 3 | 5 | 5 | 1 | 2 | 5 | 5 | 5 | 5 | 0 | 1 | Good to very good dormancy-breaking effect, apple C1 [1, 6]: good to very good dormancy-breaking effect; Dormancy-breaking effect according to the definition, apple C1 [1]: dormancy-breaking effect; Dormancy-breaking effect according to the definition, apple C2 [2]: dormancy-breaking effect; Good to very good dormancy-breaking effect, cherry C3 [3]: good to very good dormancy-breaking effect; Dormancy-breaking effect according to the definition, cherry C3 [3]: dormancy-breaking effect; Bud development stage, wine sprouts C4 ([4]; T3 (21 d)): 3; Bud development stage, wine sprouts C4 ([4]; T4 (27 d)): 5; Bud development stage, wine sprouts C4 ([4]; T5 (36 d)): 5; Bud development stage, wine sprouts C4 ([4]; T6 (56 d)): 5; Effect compared with cyanamide, wine C4 ([4]; in vivo): equal effect with cyanamide; Good to very good dormancy-breaking effect, wine C4 [4, 6]: good to very good dormancy-breaking effect; Dormancy-breaking effect according to the definition, wine C4 [4]: dormancy-breaking effect
COC(=O)NC#N.[Na] [Example A-3, Sodium methoxy carbonyl cyanamide] | 1 | 1 | 2 | 3 | 4 | 5 | 0 | 0 | 0 | 2 | 4 | 4 | 0 | 0 | 0 | 1 | 3 | 5 | 0 | 0 | Dormancy-breaking effect according to the definition, apple C1 [1]: dormancy-breaking effect; Dormancy-breaking effect according to the definition, apple C2 [2]: dormancy-breaking effect; Bud development stage, wine sprouts C4 ([4]; T3 (21 d)): 0; Bud development stage, wine sprouts C4 ([4]; T4 (27 d)): 1; Bud development stage, wine sprouts C4 ([4]; T5 (36 d)): 5; Bud development stage, wine sprouts C4 ([4]; T6 (56 d)): 5; Dormancy-breaking effect according to the definition, wine C4 [4]: dormancy-breaking effect
